According to patent US9327264B2, “Containerless synthesis of amorphous and nanophase organic materials” (UCHICAGO ARGONNE, LLC, priority 2011, dated 2016):
Read-outs that look alike come from different tables or passages of the source.

What was measured:
Format in all cases: physicochemical
[1] = Retention of amorphous form on temperature exposure and room temperature storage (x-ray diffraction); conditions: for Amorphous state during temperature exposure: exposure to temperatures between about −200° C. and 25° C.; for Time amorphous form could be stored: room temperature, in glass or in contact with polyimide film
Text: (Suitable film is polyimide film, e.g., Kapton from Dupont.)
The structure and properties of stable or meta-stable amorphous gels are often quite different from their crystalline counterparts. Therefore at, or just prior to, tP the gels were quenched into a small dish of liquid nitrogen in an attempt to preserve the amorphous forms. The cold solid samples were quickly recovered and re-levitated. In-situ x-ray structure measurements were then made on the cold solids as they warmed back to room temperature.
Generally, radiations greater than 40 keV are suitable to provide bulk structure detail of materials about a millimeter or two in size.

[2] = In situ x-ray monitoring of levitated amorphous gel over time; conditions: after more than 14 hours of in situ measurements on the levitated drop, from ethanol solution
Text: By following the position of the principal peak in the x-ray diffraction patterns for all the supersaturated solutions, the amorphization process was investigated as a function of time. […] The fact there are no sharp (needle like) peaks in the measured spectra indicates the materials are completely amorphous. […] Some of the samples prepared using the invented process maintained their amorphous form for at least three weeks. This imaging method enabled the structural evolution of the material to be monitored in real time. The data were acquired from levitated samples in two minute duration sets.

[3] = Shelf life of substantially pure amorphized materials stored at 4° C. (x-ray diffraction)
Text: The inventors have discovered that acoustic levitation produces amorphous forms of a variety of organic compounds having different glass forming abilities. […] It is also noted that the term “vitreous”, “vitrify”, “vitrification”, “glass” and “glassy” are variations of amorphous for the purposes of this specification and may be used interchangeably. The x-ray diffraction patterns were obtained using very high flux, high energy x-rays that are capable of detecting even minute (<1%) traces of crystalline materials. A configuration to enable x-ray beam analysis is depicted in FIG. 8 and discussed infra.
Several amorphized samples were quenched by trapping them in a small volume of liquid quenchent (for example liquid nitrogen, which is maintained at about −196° C.). The quenched samples were stored at temperatures ranging from about −20° C. to 25° C.
Shelf life is therefore extended by cooling them. […] For bulk storage of amorphized materials, samples are stored at temperatures below freezing (0° C.) if the samples are to be kept more than 150 days. However, for short term storage (e.g., less than 150 days), stability is achieved at storage temperatures up to about 20° C.
Myriad types of materials are candidates for processing using the invented weightless process. Suitable genuses of material include, but are not limited to pharmaceuticals, antibiotics, cosmetics, foods such as dairy products, and combinations thereof. Table 1 below depicts the sample stability over time for various amorphous materials produced using the invented method.
The structure of the starting crystalline materials, the supersaturated samples processed in the levitator, and the in-situ progress of the evaporation experiments were measured using the 115 keV x-ray diffraction beam line 11-ID-C at the Advanced Photon Source, located at Argonne National Laboratory, Argonne, Ill. X-rays with an incident wavelength of 0.10798 Å were used and the scattered x-ray intensity was measured with a flat plate a-Si Perkin Elmer area detector (model XRD 1621). Generally, radiations greater than 40 keV are suitable to provide bulk structure detail of materials about a millimeter or two in size.

[4] = Glass transition temperature Tg
Protocol: The quenched samples were stored at temperatures ranging from about −20° C. to 25° C.

[5] = quenched samples stored at about −20° C. to 25° C., as noted in Table 1

CC(C)(C)CC(C)(C)c1ccc(O)c(Cc2ccc(Cl)cc2Cl)c1 [Clofoctol]
Amorphous state during temperature exposure [1]: remain amorphous | Time amorphous form could be stored [1]: at least three

CC(C)Cc1ccc(C(C)C(=O)O)cc1 (stereo not shown) [Ibuprofen]
Time amorphous form could be stored [1]: at least three | Changes in structure of levitated amorphous gel after plateau [2]: only minimal changes in structure

CC(C)(Sc1cc(C(C)(C)C)c(O)c(C(C)(C)C)c1)Sc1cc(C(C)(C)C)c(O)c(C(C)(C)C)c1 [Probucol]
Stability of amorphized drug over a period of months [3]: remained substantially stable | Tg [4]: 27 °C

C(=C\c1ccccc1)/CN1CCN(C(c2ccccc2)c2ccccc2)CC1 [Cinnazirine, Cinnarizine]
Stability of amorphized drug over a period of months [3, 5]: remained substantially stable | Tg [4]: 7 °C

NC(=O)N1c2ccccc2C=Cc2ccccc21 [Carbamazepine]
Shelf life: amorphous state at time 1 month ([3]; stored at 4° C., 1 month): A/P | Shelf life: amorphous state at time 2 months ([3]; stored at 4° C., 2 months): A/P | Shelf life: amorphous state at time 3 months ([3]; stored at 4° C., 3 months): A/P | Shelf life: amorphous state at time 4 months ([3]; stored at 4° C., 4 months): A/P | Tg [4]: 61 °C

CC(C(=O)O)c1cccc(C(=O)c2ccccc2)c1 (stereo not shown) [Ketoprofen]
Tg [4]: −3 °C | Amorphous state during temperature exposure [1]: remain amorphous | Time amorphous form could be stored [1]: at least three

Clc1ccc(COC(Cn2ccnc2)c2ccc(Cl)cc2Cl)c(Cl)c1 (stereo not shown) [Miconazole Nitrate]
Stability of amorphized drug over a period of months [3, 5]: remained substantially stable | Tg [4]: 1 °C

Clc1ccccc1C(c1ccccc1)(c1ccccc1)n1ccnc1 [Clotrimazole]
Stability of amorphized drug over a period of months [3, 5]: remained substantially stable | Tg [4]: 30 °C | Amorphous state during temperature exposure [1]: remain amorphous | Time amorphous form could be stored [1]: at least three
